Test results reported in patent US12083101B2, “Biaryl derivatives as YAP/TAZ-TEAD protein-protein interaction inhibitors” (Novartis AG, priority 2020, dated 2024).
Like-named read-outs stand apart in the source and are kept apart here.

Experiments:
[1] = tested on: NCI-H2052 Tet-On shYAP_2371 pLenti6 MCAT_Luc cells (YAP-dependent transcription); test: YAP reporter gene activity assay (MCAT-luciferase), NCI-H2052; format: cell-based; settings: 24 hours incubation, BrightGlo luminescence
How it was run: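 NCI-H2052 cells carrying an MCAT-luciferase reporter and a tetracycline-inducible YAP 3′UTR shRNA were treated with eleven 2-fold compound dilutions (0.1% DMSO) for 24 h at 37 °C. BrightGlo luminescence was background-subtracted and expressed as % of DMSO control. IC50 came from a four-parameter fit; MKN-45/Ubc-luc cells served as the specificity counterscreen.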

[2] = molecular target: Avi-humanTEAD4 217-434 / Cy5 labeled humanYAP 60-100 (Homo sapiens (Human), UniProt Q15561); test: TR-FRET YAP-TEAD4 in-vitro biochemical assay; format: binding; settings: 1 nM Avi-humanTEAD4 217-434, 20 nM Cy5-humanYAP 60-100, 1 h room temperature
[3] = tested on: NCI-H2052 Tet-On shYAP_2371 pLenti6 MCAT_Luc cells; test: Proliferation assay (resazurin), NCI-H2052; format: cell-based; settings: 72 hours incubation
How it was run: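 The NCI-H2052 line carries a Tet-inducible shRNA against the YAP1 3′UTR and an MCAT luciferase reporter. The day after seeding, it received eleven 2-fold compound dilutions at 0.1% DMSO, and viability was read by resazurin fluorescence.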

MKN-45/Ubc-luc cells [4] = test: Reporter gene specificity control (Ubc-luciferase), MKN-45
MKN-45/Ubc-luc cells [5] = test: Proliferation assay (resazurin), MKN-45; format: cell-based; settings: 72 hours incubation
[6] = Homo sapiens, MKN-45, 24 h, read-out: Reporter gene assay MKN-45 IC50 [μM], MKN-45/Ubc-luc cells (YAP deleted, specificity control), 24 hours incubation
[7] = read-out: Reporter gene assay MKN-45 IC50, MKN-45/Ubc-luc cells (YAP deleted, specificity control), 24 hours incubation

Avi-humanTEAD4 217-434 / Cy5 labeled humanYAP 60-100, sequence (Q15561 217-434): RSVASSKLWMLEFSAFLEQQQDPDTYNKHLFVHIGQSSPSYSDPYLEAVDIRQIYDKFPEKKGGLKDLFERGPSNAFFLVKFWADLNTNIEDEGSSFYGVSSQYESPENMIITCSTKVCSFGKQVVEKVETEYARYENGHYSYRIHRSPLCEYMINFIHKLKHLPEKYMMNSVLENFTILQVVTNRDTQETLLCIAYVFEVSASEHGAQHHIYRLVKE

IC50 ([1]; Homo sapiens, NCI-H2052, 24 h) | IC50 [2] | GI50 ([3]; Homo sapiens, NCI-H2052, 72 h) | IC50 (MKN-45/Ubc-luc cells [4]; [6]) | GI50 (MKN-45/Ubc-luc cells [5]; Homo sapiens) | IC50 [1] | GI50 [3] | IC50 (MKN-45/Ubc-luc cells [4]; [7]) | GI50 (MKN-45/Ubc-luc cells [5]) | SMILES
0.045 µM | 0.002 µM | 0.076 µM | > 10 µM | > 10 µM |  |  |  |  | COCCOc1ccc(C(N)=O)c(-c2c(Cl)c(F)cc3c2[C@H](C)[C@@](CN[C@H]2CC[C@](C)(O)CC2)(c2ccccn2)O3)c1F (atropisomer, axis not shown) [Example 126, 2-((2R,3S,4S)-5-Chloro-6-fluoro-2-((((trans)-4-hydroxy-4-methylcyclohexyl)amino)methyl)-3-methyl-2-(pyridin-2-yl)-2,3-dihydrobenzofuran-4-yl)-3-fluoro-4-(2-methoxyethoxy)benzamide]
0.047 µM | 0.005 µM | 0.094 µM | > 10 µM | > 10 µM |  |  |  |  | NC[C@@]1(c2ccccc2)Cc2c(cc(F)c(Cl)c2-c2c(C(N)=O)cnc(OCCO)c2F)O1 (atropisomer, axis not shown) [Example 43, 4-((2S,4S)-2-(Aminomethyl)-5-chloro-6-fluoro-2-phenyl-2,3-dihydrobenzofuran-4-yl)-5-fluoro-6-(2-hydroxyethoxy)nicotinamide]
 | 0.006 µM |  |  |  | 0.028 µM | 0.029 µM | > 10 µM | > 10 µM | NC(=O)c1ccc(OCCO)c(F)c1-c1c(Cl)c(F)cc2c1C[C@@](CN[C@H]1C[C@H](C(F)F)C1)(c1ccccc1)O2 (relative stereo) [Example 140b, 2-((2S,4S)-5-chloro-2-((((trans)-3-(difluoromethyl)cyclobutyl)amino)methyl)-6-fluoro-2-phenyl-2,3-dihydrobenzofuran-4-yl)-3-fluoro-4-(2-hydroxyethoxy)benzamide]
0.046 µM | 0.005 µM | 0.058 µM | > 20 µM | > 20 µM |  |  |  |  | CNC[C@]1(c2ccccc2)Oc2cc(F)c(Cl)c(-c3c(C(=O)NC)cnc(OCCO)c3F)c2[C@@H]1C (atropisomer, axis not shown) [Example 145, 4-((2S,3S,4S)-5-Chloro-6-fluoro-3-methyl-2-((methylamino)methyl)-2-phenyl-2,3-dihydrobenzofuran-4-yl)-5-fluoro-6-(2-hydroxyethoxy)-N-methylnicotinamide]
0.036 µM | 0.002 µM | 0.025 µM | > 10 µM | > 10 µM |  |  |  |  | C[C@H](O)COc1ccc(C(N)=O)c(-c2c(Cl)c(F)cc3c2C[C@](c2ccccc2)([C@@H]2CCCN2)O3)c1F (atropisomer, axis not shown) [Example 152, 2-((2S,4S)-5-Chloro-6-fluoro-2-phenyl-2-((S)-pyrrolidin-2-yl)-2,3-dihydrobenzofuran-4-yl)-3-fluoro-4-((S)-2-hydroxypropoxy)benzamide]
0.016 µM | 0.001 µM | 0.03 µM | > 10 µM | > 10 µM |  |  |  |  | C[C@H]1c2c(cc(F)c(Cl)c2-c2c(C(N)=O)ccc(OCCO)c2F)O[C@]1(CN[C@H]1CC[C@@](C)(O)CC1)c1ccccc1 (atropisomer, axis not shown) [Example 117b, 2-((2S,3S,4S)-5-chloro-6-fluoro-2-((((cis)-4-hydroxy-4-methylcyclohexyl)amino)methyl)-3-methyl-2-phenyl-2,3-dihydrobenzofuran-4-yl)-3-fluoro-4-(2-hydroxyethoxy)benzamide]
 | 0.032 µM |  |  |  | 0.316 µM | 0.571 µM | > 10 µM | > 10 µM | NC(=O)c1ccc(OC(F)F)c(F)c1-c1c(Cl)c(F)cc2c1C[C@@](CN[C@H]1CC[C@@H](O)[C@H](F)C1)(c1ccccc1)O2 (atropisomer, axis not shown) [Example 81b, 2-((2S,4S)-5-chloro-6-fluoro-2-((((1R,3S,4S)-3-fluoro-4-hydroxycyclohexyl)amino)methyl)-2-phenyl-2,3-dihydrobenzofuran-4-yl)-4-(difluoromethoxy)-3-fluorobenzamide]
0.084 µM | 0.005 µM | 0.188 µM | > 10 µM | > 10 µM |  |  |  |  | NC(=O)c1ccc(OC(F)F)c(F)c1-c1c(Cl)ccc2c1[C@H](O)[C@@](CNC1CCC1)(c1ccccc1)O2 (atropisomer, axis not shown) [Example 96, 2-((2S,3S,4S)-5-Chloro-2-((cyclobutylamino)methyl)-3-hydroxy-2-phenyl-2,3-dihydrobenzofuran-4-yl)-4-(difluoromethoxy)-3-fluorobenzamide]
0.024 µM | 0.002 µM | 0.029 µM | > 10 µM | > 10 µM |  |  |  |  | NC[C@@]1(c2ccccc2)Cc2c(cc(F)c(Cl)c2-c2c(C(N)=O)ccc(OCCO)c2F)O1 (atropisomer, axis not shown) [Example 38, 2-((2S,4S)-2-(aminomethyl)-5-chloro-6-fluoro-2-phenyl-2,3-dihydrobenzofuran-4-yl)-3-fluoro-4-(2-hydroxyethoxy)benzamide]
0.02 µM | 0.002 µM | 0.036 µM | > 10 µM | > 10 µM |  |  |  |  | CNC(=O)c1ccc(OCCO)c(F)c1-c1c(Cl)c(F)cc2c1[C@H](C)[C@@](CN[C@H]1CC[C@](C)(O)CC1)(c1ccccc1)O2 (atropisomer, axis not shown) [Example 121, 2-((2S,3S,4S)-5-Chloro-6-fluoro-2-((((trans)-4-hydroxy-4-methylcyclohexyl)amino)methyl)-3-methyl-2-phenyl-2,3-dihydrobenzofuran-4-yl)-3-fluoro-4-(2-hydroxyethoxy)-N-methylbenzamide]
0.118 µM | 0.022 µM | 0.258 µM | > 10 µM | > 10 µM |  |  |  |  | CS(=O)(=O)[C@H]1CC[C@H](NC[C@@]2(c3ccccc3)Cc3c(cc(F)c(Cl)c3-c3c(C(N)=O)ccc(OC(F)F)c3F)O2)CC1 [Example 54b, 2-((2S,4S)-5-chloro-6-fluoro-2-((((trans)-4-(methylsulfonyl)cyclohexyl)amino)methyl)-2-phenyl-2,3-dihydrobenzofuran-4-yl)-4-(difluoromethoxy)-3-fluorobenzamide]
0.394 µM | 0.024 µM | 0.503 µM | > 10 µM | > 10 µM |  |  |  |  | NC(=O)c1ccc(OC(F)F)c(F)c1-c1c(Cl)c(F)cc2c1C[C@@](CN[C@@H]1CCC[C@H](O)C1)(c1ccccc1)O2 (atropisomer, axis not shown) [Example 83, 2-((2S,4S)-5-chloro-6-fluoro-2-((((1R,3S)-3-hydroxycyclohexyl)amino)methyl)-2-phenyl-2,3-dihydrobenzofuran-4-yl)-4-(difluoromethoxy)-3-fluorobenzamide]
 | 0.003 µM |  |  |  | 0.055 µM | 0.148 µM | > 10 µM | > 10 µM | COc1ccc(C(N)=O)c(-c2c(Cl)ccc3c2C[C@@](CN[C@H]2CC[C@@H](C(=O)O)CC2)(c2ccccc2)O3)c1F (relative stereo) [Example 28b, (cis)-4-((((2S,4S)-4-(6-carbamoyl-2-fluoro-3-methoxyphenyl)-5-chloro-2-phenyl-2,3-dihydrobenzofuran-2-yl)methyl)amino)cyclohexanecarboxylic acid]
 | 0.005 µM |  |  |  | 0.13 µM | 0.28 µM | > 20 µM | > 10 µM | COc1ccc(C(N)=O)c(-c2c(Cl)ccc3c2C[C@@](CN)(c2ccccc2)O3)c1F (single isomer, unassigned) [Example 5a]
0.391 µM | 0.006 µM | 0.493 µM | > 10 µM | 9.4 µM |  |  |  |  | COc1ncc(C(N)=O)c(-c2c(Cl)c(F)cc3c2C[C@@](CN)(c2ccccc2)O3)c1F (atropisomer, axis not shown) [Example 42, 4-((2S,4S)-2-(aminomethyl)-5-chloro-6-fluoro-2-phenyl-2,3-dihydrobenzofuran-4-yl)-5-fluoro-6-methoxynicotinamide]
 | 0.001 µM |  |  |  | 0.026 µM | 0.081 µM | > 10 µM | > 10 µM | COc1ccc(C(N)=O)c(-c2c(Cl)ccc3c2C[C@@](CN[C@H]2CC[C@H](O)CC2)(c2ccccc2)O3)c1F (relative stereo) [Example 27a, 2-((2S,4S)-5-Chloro-2-(((trans-4-hydroxycyclohexyl)amino)methyl)-2-phenyl-2,3-dihydrobenzofuran-4-yl)-3-fluoro-4-methoxybenzamide]
0.419 µM | 0.033 µM | 0.674 µM | > 10 µM | > 10 µM |  |  |  |  | C[C@@H](O)CNC[C@@]1(c2ccccc2)Cc2c(cc(F)c(Cl)c2-c2c(C(N)=O)ccc(OC(F)F)c2F)O1 (atropisomer, axis not shown) [Example 74, 2-((2S,4S)-5-chloro-6-fluoro-2-((((R)-2-hydroxypropyl)amino)methyl)-2-phenyl-2,3-dihydrobenzofuran-4-yl)-4-(difluoromethoxy)-3-fluorobenzamide]
